According to PMC6025407, “Asperversins A and B, Two Novel Meroterpenoids with an Unusual 5/6/6/6 Ring from the Marine-Derived Fungus Aspergillus versicolor” (Marine Drugs, 2018):
Converted amounts (≈) assume the structure as drawn. Read-outs that look alike come from different tables or passages of the source.

How the values were obtained:
[1] = target: human recombinant AChE (Homo sapiens, UniProt P22303); assay: biochemical; conditions: for inhibition at 100 µM: AChE, read-out: Inhibitory Ratio at 100 μM; for IC50: read-out: IC50 Value against AChE
Protocol: Briefly, 20 µL AChE (0.05 U/mL) and 20 µL different concentrations of compounds (0.1 M phosphate buffer, pH 8.0) containing 0.1% Triton X-100) were pre-incubated at 37 °C for 30 min, then 160 µL of the assay solution which consisted of a 0.1 M phosphate buffer pH 8.0, with the addition of 600 µM 5,5’-dithio-bis (2-nitrobenzoic acid) and 550 µM acetylthiocholine iodide (ATCh) were added in the 96-well plates. The absorbance value at 425 nm was recorded for 15 min and enzyme activity was calculated from the slope of the obtained linear trend. The reaction rates were compared and the % inhibition due to the presence of tested inhibitors was calculated. Each concentration was analyzed in triplicate, and IC50 values were determined graphically from log concentration inhibition curves (Graphpad Prism 5, GraphPad Software Inc., San Diego, CA, USA).

[2] = in vitro; conditions: human, A549 cells
Protocol: Four human cancer cell lines (A549, MCF-7, HepG2, and HL-60 cells), together with one noncancerous cell line, the human bronchial epithelial cells Beas-2B, were used in the cytotoxic activity assay. […]
medium (HyClone, Logan, UT, USA), supplemented with 10% fetal bovine serum (HyClone) at 37 °C in a humidified atmosphere with 5% CO 2 . The cell survival assay was performed using the MTT method. Briefly, 100 μ L of a suspension of the adherent cells was seeded into each well of the 96 - well culture plates and allowed to adhere for 12 h before addition of the test compounds. The suspended cells were seeded at an initial density of 1 × 10^5 cells/mL immediately before the addition of the drug. Each tumor cell line was exposed for 48 h in triplicate to the test compounds at concentrations […]
positive controls. After incubation, culture supernatants were removed and exchanged with medium containing 0.5 mg/mL MTT. Then, the cells were incubated for 4 h at 37 °C in darkness , followed by the removal of the medium and adding 100 μ L dimethyl sulfoxide. The absorbance at 570 nm was detected and the data were expressed as the mean percentage of absorbance in treated vs. control cells.

[3] = Cytotoxic assay (MTT); conditions: human
Protocol: (§1) Four human cancer cell lines (A549, MCF-7, HepG2, and HL-60 cells), together with one noncancerous cell line, the human bronchial epithelial cells Beas-2B, were used in the cytotoxic activity assay. All cells were cultured in DMEM or RPMI- 1640 medium (HyClone, Logan, UT, USA), supplemented with 10% fetal bovine serum (HyClone) at 37 °C in a humidified atmosphere with 5% CO 2 . The cell survival assay was performed using the MTT method. Briefly, 100 μ L of a suspension of the adherent cells was seeded into each well of the 96 - well culture plates and allowed to adhere for 12 h before addition of the test compounds. The suspended cells were seeded at an initial density of 1 × 10^5 cells/mL immediately before the addition of the drug. Each tumor cell line was exposed for 48 h in triplicate to the test compounds at concentrations of 0.0625 , 0.32, 1.6, 8, and 40 μ M, with DDP (cis - platin, Sigma) and paclitaxel as positive controls. After incubation, culture supernatants were removed and exchanged with medium containing 0.5 mg/mL MTT. Then, the cells were incubated for 4 h at 37 °C in darkness , followed by the removal of the medium and adding 100 μ L dimethyl sulfoxide. The absorbance at 570 nm was detected and the data were expressed as the mean percentage of absorbance in treated vs. control cells.

[4] = Cytotoxic assay (MTT), noncancerous cell line; conditions: human, Beas-2B bronchial epithelial cells (noncancerous)
Protocol: as §1

[5] = test system: Escherichia coli; assay: Antimicrobial (printed 'antifungal') bioassay; type: cell-based
Protocol: (§2) The tested pathogenic fungi, Staphylococcus aureus (MRSA), methicillin-sensitive Staphylococcus aureus (MSSA), Escherichia coli and Pseudomonas aeruginosa, were provided by Tongji Hospital of Tongji Medical College of Huazhong University of Science and Technology. All samples dissolved in MeOH were tested for antifungal activity in vitro by mycelial growth inhibitory rate method, a Poison Food Technique.
(§3) Potato dextrose agar (PDA) medium was used as the medium for all test fungi.
(§4) The media (100 ml) incorporating test samples were inoculated at the center of agar discs of the test fungi (4 mm diameter). Three replicate plates for each fungus were incubated at 26 °C for all test fungi. Control plates containing media mixed with MeOH (1 ml) were in cluded. After incubation for 24–48 h, the mycelial growth of fungi (mm) in both treated (T) and control (C) Petri dishes was measured diametrically in three different directions (decussation method) until the fungal growth in the control dishes was almost complete. The percentage of growth inhibition ( I) was calculated using the […]
(§5) Table S2. Antifungal Effects of Compounds 1−8 (MIC, μg/ml). fungi MRSA MSSA E. coli P. aeruginosa

[6] = test system: Pseudomonas aeruginosa; assay: Antimicrobial (printed 'antifungal') bioassay; type: cell-based
Protocol: as §2, §3, §4, §5

[7] = test system: methicillin-resistant Staphylococcus aureus (MRSA); assay: Antimicrobial (printed 'antifungal') bioassay; type: cell-based
Protocol: as §2, §3, §4, §5

[8] = test system: methicillin-sensitive Staphylococcus aureus (MSSA); assay: Antimicrobial (printed 'antifungal') bioassay; type: cell-based
Protocol: as §2, §3, §4, §5

[9] = test system: methicillin-resistant Staphylococcus aureus (MRSA); conditions: cited from earlier work

Chain of human recombinant AChE (P22303 32-614): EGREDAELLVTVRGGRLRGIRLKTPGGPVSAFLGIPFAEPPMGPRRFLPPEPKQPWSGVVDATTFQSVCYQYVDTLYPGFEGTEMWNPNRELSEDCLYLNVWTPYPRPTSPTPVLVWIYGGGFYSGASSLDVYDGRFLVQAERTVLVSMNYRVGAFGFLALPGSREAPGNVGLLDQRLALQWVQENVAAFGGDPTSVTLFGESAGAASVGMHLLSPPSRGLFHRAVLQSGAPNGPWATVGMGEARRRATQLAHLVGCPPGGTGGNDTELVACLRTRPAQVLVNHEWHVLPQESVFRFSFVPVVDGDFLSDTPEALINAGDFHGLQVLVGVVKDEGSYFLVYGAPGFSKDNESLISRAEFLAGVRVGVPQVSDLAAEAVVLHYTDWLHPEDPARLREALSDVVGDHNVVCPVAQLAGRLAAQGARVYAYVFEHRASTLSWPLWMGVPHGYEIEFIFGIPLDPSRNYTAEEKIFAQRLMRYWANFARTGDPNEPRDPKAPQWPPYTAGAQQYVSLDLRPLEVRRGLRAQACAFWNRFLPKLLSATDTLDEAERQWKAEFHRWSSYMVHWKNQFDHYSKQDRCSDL

Compound | inhibition at 100 µM [1] [%] | IC50 [1] [µM] | IC50 at 48 h [2] [µM] | IC50 at 48 h ([3]; HL-60 cells) [µM] | IC50 at 48 h ([3]; HepG2 cells) [µM] | IC50 at 48 h ([3]; MCF-7 cells) [µM] | IC50 at 48 h [4] [µM] | MIC ([5]; E. coli, read-out: MIC) [µg/mL] | MIC ([6]; P. aeruginosa, read-out: MIC) [µg/mL] | MIC ([7]; read-out: MIC) [µg/mL] | MIC ([8]; read-out: MIC) [µg/mL] | MIC [5] [µg/mL] | MIC [6] [µg/mL] | MIC [7] [µg/mL] | MIC [8] [µg/mL] | activity against MRSA (in words) [9]
COC(=O)C[C@@H]1OC(C)(C)[C@@H]2[C@H](OC(C)=O)C[C@@]3(C)Oc4cc(C)oc(=O)c4C[C@@H]3[C@@]12C [Compound 1, Asperversin A] | 35.7 | > 40 | > 40 | > 40 | > 40 | > 40 | > 40 | > 100 | > 100 | > 100 | > 100 |  |  |  |  | 
CC(=O)O[C@@H]1C[C@@]2(C)Oc3cc(C)oc(=O)c3C[C@@H]2[C@@]2(C)[C@H](CC(=O)O)OC(C)(C)[C@H]12 [Compound 2, Asperversin B] | 36.2 | > 40 | > 40 | > 40 | > 40 | > 40 | > 40 | > 100 | > 100 | > 100 | > 100 |  |  |  |  | 
C=C(C)[C@@H]1[C@H](OC(C)=O)C[C@@]2(C)Oc3cc(C)oc(=O)c3C[C@@H]2[C@@]1(C)[C@H](CC(=O)OC)OC(C)=O [Compound 3, Asperversin C] | 27.6 | > 40 | > 40 | > 40 | > 40 | > 40 | > 40 | > 100 | > 100 | > 100 | > 100 |  |  |  |  | 
Cc1cc2c(c(=O)o1)C[C@@H]1[C@@]3(C)[C@@H](O)CC(=O)OC(C)(C)[C@@H]3CC[C@@]1(C)O2 [Compound 4, Asperversin D] | 50.2 | > 40 | > 40 | > 40 | > 40 | > 40 | > 40 | > 100 | > 100 | > 100 | > 100 |  |  |  |  | 
CC(=O)OC1CC2(C)Oc3cc(C)oc(=O)c3CC2C2(C)C(O)CC(=O)OC(C)(C)C12 (stereo not drawn) [Compound 5, Asperversin E] | 48.7 | > 40 | > 40 | > 40 | > 40 | > 40 | > 40 | > 100 | > 100 | > 100 | > 100 |  |  |  |  | 
CC(=O)O[C@H]1CC(=O)OC(C)(C)[C@@H]2[C@H](OC(C)=O)C[C@@]3(C)Oc4cc(C)oc(=O)c4C[C@@H]3[C@@]12C [Compound 6, Asperversin F] | 62.9 | > 40 | > 40 | > 40 | > 40 | > 40 | > 40 | > 100 | > 100 | > 100 | > 100 |  |  |  |  | 
CC(=O)OC1CC2(C)Oc3cc(C)oc(=O)c3CC2C2(C)C=CC(=O)C(C)(C)C12 (stereo not drawn) [Compound 7, Asperversin G] | 92.4 | 13.6 | > 40 | > 40 | > 40 | > 40 | > 40 | > 100 | > 100 | > 100 | > 100 |  |  |  |  | 
Cc1cc2c(c(=O)o1)C[C@@H]1[C@@]3(C)[C@@H](O)CC(=O)OC(C)(C)[C@@H]3[C@H](O)C[C@@]1(C)O2 [Compound 8, asperdemin] | 25.3 | > 40 | > 40 | > 40 | > 40 | > 40 | > 40 | > 100 | > 100 | > 100 | > 100 |  |  |  |  | 
CN[C@H](CC(C)C)C(=O)N[C@H]1C(=O)N[C@@H](CC(N)=O)C(=O)N[C@H]2C(=O)N[C@H]3C(=O)N[C@H](C(=O)N[C@H](C(=O)O)c4cc(O)cc(O)c4-c4cc3ccc4O)[C@H](O)c3ccc(c(Cl)c3)Oc3cc2cc(c3O[C@@H]2O[C@H](CO)[C@@H](O)[C@H](O)[C@H]2O[C@H]2C[C@](C)(N)[C@H](O)[C@H](C)O2)Oc2ccc(cc2Cl)[C@H]1O [vancomycin, reference compound] |  |  |  |  |  |  |  |  |  |  |  | 0.5 (≈ 0.345 µM) | 0.8 (≈ 0.552 µM) | 1.2 (≈ 0.828 µM) | 0.5 (≈ 0.345 µM) | 
Apiroaspertrione A |  |  |  |  |  |  |  |  |  |  |  |  |  |  |  | effective activity
